Measured values taken from patent publication US5770604A, “Aconitine compound and an antipyretic/analgesic/anti-inflammatory agent” (priority 1994, dated 1998).

Assays:
[1] = tested on: pain threshold (tail-pressure); experiment: Analgesic activity by the tail-pressure method (s.c.); format: in vivo, mice (Std:ddY, male); conditions: mouse, 10 mg/10 ml at 10 ml/kg s.c., 1 hour after administration, mean ± standard error
Protocol: (1) Measurement of Analgesic Activity by the Tail-Pressure Method
Std:ddY Strain male mice (20-25 g) were fasted for one day before the experiment, and were used. After test compounds shown in Table 1 was formed to a salt with tartaric acid, this salt was dissolved in 0.9% physiological saline solutions at the rate of 10 mg/10 ml to give the test compoun d solution . As a control, 0.9% physiological saline solution was used. A tail-pressure apparatus was used in this experiments. Before the administration of test compounds, the pain threshold was measured twice at intervals of 30 minutes and those mice indicating a pain threshold of 50 to 100 mmHg were selected and used. The pain threshold of each mouse was measured at 1 hour after test compound solution mentioned above was administered at 10 ml/kg, s.c. 0.9% Physiological saline solution as a control was administered at 10 ml/kg, s.c . The results were described as an inhibition rate (%) obtained from the following equation. Cutoff level of pressure was defined to be 230 mmHg for the prevention of the damage of mouse tail.
Inhibition rate (%)=(A-B)×100/(C-B)
A: Pain threshold (mmHg) after the administration of test compound solution
B: Pain threshold (mmHg) before the administration of test compound solution
C: Cutoff pressure (230 mmHg)

[2] = tested on: nociceptive response (licking); experiment: Analgesic activity by the hot-plate method; format: in vivo, mice (Std:ddY, male); conditions: mouse, 52° C. plate, solution 10 mg/10 ml, mean ± standard error
Protocol: Measurement of Analgesic Activity by the Hot-Plate Method
Std:ddY Strain male mice (20-25 g) were fasted for one day before the experiment, and were used. After compounds shown in Table 1 were formed to the tartaric acid salts, these compounds were dissolved in 0.9% physiologocal saline solution at the rate of 10 mg/10 ml, respectively and these solution were used as test compound solution. In a control, 0.9% physiological saline solution was used. Mice were placed on a cyrindric hot plate (diameter: 22 cm, height: 11 cm) made of copper which was fixed in a water bath adjusted to 52° C. so that each animal's four paws came into contact with the plate and the time taken to show the nociceptive response (licking) as an index of pain was measured. Mice showing response latency above 25 seconds were excluded from the experiment. To prevent a burn damage of mouse tissue by heating, cutoff time of 50 seconds was defined. The results were described as an inhibition rate (%) obtained from the following equation.
Inhibition rate (%)=(A-B)×100/(50-B)
A: Response latency (seconds) after the administration of test compound solution
B: Response latency (seconds) before the administration of test compound solution

[3] = tested on: carrageenin-induced paw edema; experiment: Antiinflammatory activity by the carrageenin-induced hind paw edema; format: in vivo, mice (Std:ddY, male); conditions: mouse, 30 mg/kg p.o., mean ± standard error, n = 6
Protocol: Measurement of Antiinflammatory Activity by the Carrageenin-Induced Hind Paw Edema
Std:ddY Strain male mice (20-25 g) were fasted for one day before the experiment, and were used. After test compounds shown in Table 1 was formed to a salt with tartaric acid, this salt was dissolved in sterilized and distilled water at the rate of 30 mg/10 ml to give the test compound solution. As a control, sterilized and distilled water was used. One hour after the oral administration of test compound solutions, 25 μl of λ-carrageenin suspended in 0.9% physiological saline solution (0.5 mg/25 μl) was injected s.c. under the plantar surface of the right hind paw of a mouse and 25 μl of 0.9% physiological saline solution was injected s.c. under the plantar surface of the left hind paw of the same mouse. Three hours and five hours after carrageenin injection, the […] of the paw was measured with a dial gauge calliper. To the control group, One hour after the oral administration of sterilized and distilled water at the rate of 10 ml/kg, 25 μl of λ-carrageenin (0.5 mg/25 μl) suspended in 0.9% physiological saline solution was injected s.c. under the plantar surface of the right hind paw of a mouse and 25 μl of 0.9% physiological saline solution was injected s.c. under the plantar surface of the left hind paw of the same mouse and the later operation was done in the same manner as in the test compound dosing group mentioned above. The results were described as a swelling rate (%) obtained from the following equation.
Swelling rate (%)=(R-L)×100/L
R: the thickness of the right hind paw
L: the thickness of the left hind paw

[4] = cited from earlier work; for analgesic activity, in words: compared to morphine
yeast-induced fever = experiment: Antipyretic activity on yeast-induced fever in rats; format: in vivo, rats (Wistar, male); conditions: rat, 2 hours after administration
Protocol: Measurement of Antipyretic Activity on Yeast-Induced Fever in Rats
Wistar Strain male rats (150-190 g) were fasted for one day before the experiment, and were used. Compounds of number (1) and (2) in Table 1 were formed to the tartaric acid salt and these salts were dissolved in 0.9% physiological saline solution at the rate of 10 mg/10 ml and these solution were used as test compound solution. In a control, 0.9% physiological saline solution was used. After rat rectal temperature was measured, 1 ml/100 g of body weight of 7.5% yeast/0.9% physiological saline solution was injected s.c. at dorsal position. Then, rat rectal temperature was measured at 4 hour after the injection of yeast and rats showing the increase rectal temperature by 1 degree or more were selected and used. Test compound solution was administered s.c. at 5 hours after the injection of yeast. The rectal temperature was measured 2 hours after the administration of test compound solution. The results were described with the difference between the rectal temperature before and after the administration of test compound solution.

## CCN1CC2(COC)C(O)CC(OC)C34C5CC6(O)C(OC)C(O)C(O)(C5C6OC(=O)c5ccc(Cl)cc5)C(C(OC)C23)C14 (stereo not drawn) [14-O-p-chlorobenzoylaconine, reference compound]
[1]
  Inhibition rate (tail-pressure method): 10 ± 4%
[2]
  Inhibition rate (hot-plate method): 17 ± 7%
[3]; 3 hour
  Swelling rate: 57 ± 8%
[3]; 5 hour
  Swelling rate: 63 ± 9%
[4]; JP, A, H5-17448
  analgesic/anti-inflammatory activity relative to earlier compounds, in words: exhibits activity superior to that of compounds having a p-chlorobenzoyloxy group bonded to the position 14 carbon atom of the aconitine chemical structure

## COCC12CN(C)C3C4C(OC)C1C3(C(OC)CC2O)C1CC2(O)C(OC)C(OC(C)=O)C4(O)C1C2OC(=O)c1ccc(Cl)cc1 (stereo not drawn) [(1), 15-O-acetyl-14-O-p-chlorobenzoylmesaconine]
[1]
  Inhibition rate (tail-pressure method): 48 ± 12%
[2]
  Inhibition rate (hot-plate method): 52 ± 12%
yeast-induced fever; 1 mg/kg s.c.
  Change of rectal temperature: 1.3 ± 0.1 °C
yeast-induced fever; 3 mg/kg s.c.
  Change of rectal temperature: 0.2 ± 0.1 °C
yeast-induced fever; 10 mg/kg s.c.
  Change of rectal temperature: 0.2 ± 0.2 °C
[3]; 3 hour
  Swelling rate: 49 ± 2%
[3]; 5 hour
  Swelling rate: 52 ± 6%

## CCCN1CC2(COC)C(O)CC(OC)C34C5CC6(O)C(OC)C(OC(C)=O)C(O)(C5C6OC(=O)c5ccc(Cl)cc5)C(C(OC)C23)C14 (stereo not drawn) [(3), de-N-ethyl-N-propyl-15-O-acetyl-14-O-p-chlorobenzoylaconine]
[1]
  Inhibition rate (tail-pressure method): 36 ± 10%
[2]
  Inhibition rate (hot-plate method): 39 ± 11%
[3]; 3 hour
  Swelling rate: 42 ± 10%
[3]; 5 hour
  Swelling rate: 54 ± 8%

## CCN1CC2(COC)C(OC(C)=O)CC(OC)C34C5CC6(O)C(OC)C(OC(C)=O)C(O)(C5C6OC(=O)c5ccc(Cl)cc5)C(C(OC)C23)C14 (stereo not drawn) [(4), 3,15-di-O-acetyl-14-O-p-chlorobenzoylaconine]
[1]
  Inhibition rate (tail-pressure method): 29 ± 8%
[2]
  Inhibition rate (hot-plate method): 35 ± 9%
[3]; 3 hour
  Swelling rate: 50 ± 7%
[3]; 5 hour
  Swelling rate: 55 ± 9%

## COCC12CN(C)C3C4C(OC)C1C3(C(OC)CC2OC(C)=O)C1CC2(O)C(OC)C(OC(C)=O)C4(O)C1C2OC(=O)c1ccc(Cl)cc1 (stereo not drawn) [(5), 3,15-di-O-acetyl-14-O-p-chlorobenzoylmesaconine]
[1]
  Inhibition rate (tail-pressure method): 40 ± 10%
[2]
  Inhibition rate (hot-plate method): 37 ± 10%
[3]; 3 hour
  Swelling rate: 43 ± 10%
[3]; 5 hour
  Swelling rate: 58 ± 10%

## COCC12CCC(OC)C34C5CC6(O)C(OC)C(OC(C)=O)C(O)(C5C6OC(=O)c5ccc(Cl)cc5)C(C(OC)C13)C4N(C)C2 (stereo not drawn) [(6), 15-O-acetyl-14-O-p-chlorobenzoylhypaconine]
[1]
  Inhibition rate (tail-pressure method): 27 ± 11%
[2]
  Inhibition rate (hot-plate method): 46 ± 8%
[3]; 3 hour
  Swelling rate: 46 ± 5%
[3]; 5 hour
  Swelling rate: 60 ± 5%

## CC(=O)Oc1ccccc1C(=O)O [aspirin]
[4]
  analgesic activity, in words: weak analgesic activity compared to morphine
  activity in tail pressure methods and hot plate methods, in words: no remarkable activity in tail pressure methods and hot plate methods

## COc1ccc2c(c1)c(CC(=O)O)c(C)n2C(=O)c1ccc(Cl)cc1 [indomethacin]
[4]
  analgesic activity, in words: weak analgesic activity compared to morphine
  activity in tail pressure methods and hot plate methods, in words: no remarkable activity in tail pressure methods and hot plate methods

## de-N-ethyl-N-propyl-15-O-acetyl-8-deoxy-16-epi-14-O-p-chlorobenzoylaconine [(11)]
[1]
  Inhibition rate (tail-pressure method): 25 ± 8%
[2]
  Inhibition rate (hot-plate method): 34 ± 9%
[3]; 3 hour
  Swelling rate: 50 ± 5%
[3]; 5 hour
  Swelling rate: 52 ± 9%
